Consider 53 compounds from PubChem BioAssay AID1996.

Molecules are shown by their SMILES. In brackets after ≈: the same amount, converted by molar mass.

The conditions of the data set: buffer; pH 7.4; 200.0 µM.
The solubility (kinetic) is the concentration staying in solution when a stock, usually in DMSO, is diluted into the medium. In turn, `Oc1ccc(C2Nc3cccc4cccc(c34)N2)cc1` came in with a solubility (kinetic) of more than 39.3 µg/mL. Next, `N/C(=N\OC(=O)c1ccncc1)c1cccc([N+](=O)[O-])c1`: 25.6 µg/mL (≈ 89.4 µM); `COc1ccc(CN2CCSCC2)c(OC)c1C`: 26.4 µg/mL (≈ 98.7 µM); `O=C(O)c1[nH]c2ccc([N+](=O)[O-])cc2c1-c1ccccc1`: more than 42.3 µg/mL.

On to `COc1ccccc1C(=O)NCCC(=O)N1CCCC(C)C1` (stereo not drawn), for which the kinetic solubility was more than 45.7 µg/mL. Next, `CCOC(=O)c1nc(NCc2ccccc2)c2ccccc2n1`: 27.4 µg/mL (≈ 89.1 µM). Next, `CCn1c(=O)cc(N2CCN(C(=O)c3ccco3)CC2)[nH]c1=O`: more than 47.7 µg/mL; `COCCSc1ccccc1C(=O)Nc1ccccc1C#N`: more than 46.9 µg/mL.

Compound `CC1CCCCC12NC(=O)N(CC(=O)OCc1c(F)cccc1Cl)C2=O` (stereo not drawn) yielded a kinetic solubility of 53.3 µg/mL (≈ 139 µM). On to `CC1CCCCC1NC(=O)Cn1cnc2sccc2c1=O` (stereo not drawn), for which the solubility (kinetic) is more than 45.8 µg/mL. Next, `CCOC(=O)c1ccc(S(=O)(=O)N2CCN(C(=O)c3ccccn3)CC2)cc1`: more than 60.5 µg/mL; `O=C(NC1CC2CCC1C2)c1ccco1` (stereo not drawn): 26.3 µg/mL (≈ 128 µM). Next, `CCC(CC)N1CCN(C(=O)c2cc(OC)c(OC)c(OC)c2)CC1`: more than 52.6 µg/mL. Next, `CC(=O)Nc1cccc(NC(=S)Nc2cccc3ccccc23)c1`: more than 50.3 µg/mL; `CC1CCCCN1C(=O)COC(=O)/C=C/c1ccc2ccccc2n1` (stereo not drawn): 25.1 µg/mL (≈ 74.2 µM); `CCOC(=O)C1CCN(S(=O)(=O)c2ccccc2)CC1`: more than 44.6 µg/mL. Compound `Cc1cccc(-n2cc(-c3ccccc3)[nH]c2=S)c1` had a kinetic solubility of 8.7 µg/mL (≈ 32.7 µM). Next, `CC(=O)c1sc(C(C)(C)C)cc1NC(=O)c1ccccc1C(=O)O`: more than 51.8 µg/mL; `COc1cccc(N(C(C)=O)C2=NCCCS2)c1`: more than 39.7 µg/mL; `Cc1cnc(C(=O)OCC(=O)C23CC4CC(CC(C4)C2)C3)cn1`: more than 47.2 µg/mL. The compound `Clc1ccc(CN2CCCCCC2)cc1Cl` gave a kinetic solubility of 9 µg/mL (≈ 34.9 µM). Next, `O=C(Nc1ccc(F)c(Cl)c1)C1CCCC1`: 13.5 µg/mL (≈ 55.9 µM); `Cn1cc(C=C2C(=O)OC3(CCCCC3)OC2=O)c2ccccc21`: less than 0.7 µg/mL. As for `COc1cc(NC(N)=S)c(OC)cc1Cl`, the kinetic solubility was more than 37 µg/mL.

Compound `O=C(NNC(=O)c1ccccc1-n1cccc1)c1ccc(F)cc1` showed a solubility (kinetic) of more than 48.5 µg/mL. `O=c1c2ccccc2nc(/C=C/c2ccc(Br)cc2)n1CCO` returned a kinetic solubility of 0.8 µg/mL (≈ 2.15 µM). As for `COc1ccc(CN2C(=O)CSC2c2ccncc2)cc1` (stereo not drawn), the kinetic solubility was more than 45.1 µg/mL. Next, `Cc1ccnc(NC(=O)c2cc(F)c(F)cc2Cl)n1`: more than 42.6 µg/mL; `CCOC(=O)C1(Cc2cccc(F)c2)CCN(CC(O)CO)CC1` (stereo not drawn): 43.3 µg/mL (≈ 128 µM); `CC(C)(C)c1ccc(C(=O)OCC(=O)NCc2ccco2)cc1`: 39 µg/mL (≈ 124 µM). `Cc1ccc(NC(=O)CN(C)C(=O)C2COc3ccccc3O2)cc1` (stereo not drawn) displayed a kinetic solubility of 47.4 µg/mL (≈ 139 µM).

In the case of `O=C(Nc1ccc(F)cc1)Oc1ccccc1N1CCOCC1`, the kinetic solubility stood at 8.1 µg/mL (≈ 25.6 µM).

As for `COc1ccccc1CNC(=S)NC1CCCCC1`, the kinetic solubility is more than 41.8 µg/mL. Next, `Cc1nc(Nc2ccc(Cl)cc2)c2oc3ccccc3c2n1`: less than 0.2 µg/mL. Next, `CCOc1ccc(NC(=O)c2cc3ccccc3cc2OC)cc1`: less than 0.7 µg/mL. Next, `CCOC(=O)c1ccc(NS(=O)(=O)c2cn(C)cn2)cc1`: more than 46.4 µg/mL; `O=C(Nc1ccc(C(=O)O)cc1)Nc1ccc([N+](=O)[O-])cc1`: more than 45.2 µg/mL. In turn, `FC(F)(F)c1cccc(NC(=S)Nc2ccc(Cl)c(Cl)c2)c1` showed a kinetic solubility of 1.5 µg/mL (≈ 4.11 µM). Next, `COc1ccc(CCNC(=O)C2CC2)cc1`: 32.4 µg/mL (≈ 148 µM); `CCOC(=O)C1=C(COC(=O)COc2ccccc2C=O)NC(=O)NC1C` (stereo not drawn): more than 56.5 µg/mL.

Regarding `S=C(Nc1ccc(Cl)c(Cl)c1)N1CCCC1`, the kinetic solubility came out at 3.3 µg/mL (≈ 12 µM). `Clc1ccc2ccc3cccnc3c2n1` had a solubility (kinetic) of more than 32.2 µg/mL. Next, `CCOc1ccc(N2C(=O)CC(=O)NC2=O)cc1`: more than 37.2 µg/mL; `COc1ccc2nc(NC(=O)c3ccccc3[N+](=O)[O-])sc2c1`: 3 µg/mL (≈ 9.11 µM); `O=C1C(Cc2cnc[nH]2)NC(=S)N1c1ccccc1` (stereo not drawn): 37.4 µg/mL (≈ 137 µM). Next, `N#CCOC(=O)c1c2c(nc3ccccc13)CCC2`: 30.1 µg/mL (≈ 119 µM).

`NC(=O)c1ccccc1NC(=O)Cc1cccs1` displayed a solubility (kinetic) of 38.3 µg/mL (≈ 147 µM). This solubility kinetic and that of the compound before are within 1.5-fold of each other. Next, `O=C(Nc1sc2c(c1C(=O)O)CCCCC2)c1ccccc1`: more than 47.3 µg/mL. Turning to `O=c1nccc(N/N=C/c2cccc(O)c2)[nH]1`, the solubility (kinetic) was more than 34.5 µg/mL.

As for `Cc1ccc(Cn2c(CCCO)nc3ccccc32)cc1`, the solubility (kinetic) came to 34.5 µg/mL (≈ 123 µM).

Regarding `Cc1cc(C)c(C(=O)N2CCCC(Nc3ccc(F)cc3)C2)o1` (stereo not drawn), the solubility (kinetic) was more than 47.5 µg/mL. Next, `O=C(Cc1ccc(Cl)c(Cl)c1)Nc1cccc2ncccc12`: 2.1 µg/mL (≈ 6.34 µM). Next, `CC(=O)Nc1ccc(NS(=O)(=O)c2ccc(C)cc2)cc1[N+](=O)[O-]`: more than 52.4 µg/mL.
